Data published in patent US7396946B2, “Compound for treatment of external secretion disorders” (Sucampo AG, priority 1999, dated 2008).

How the values were obtained:
[1] = system: normal rabbits; assay: Effect on whole tear secretion of normal rabbits (Schirmer's test, Test Example 1); type: in vivo, Male Japanese albino rabbits (Std:JW/CSK); settings: for whole tear secretion: 30 μl/eye single instillation, 8 eyes
Method: Male Japanese albino rabbits (Std:JW/CSK) were used.
(2) Method of Administration
Ophthalmic solution comprising 0.001% of 13,14-dihydro-15-keto-16,16-difluoro-PGE1 as an active ingredient of the present invention was prepared and used as a test composition. As a control, the vehicle of said solution without the active ingredient was used.
Each of the compositions was instilled singly to eight eyes at the amount of 30 μl/eye. After the administration, the time course of the tear secretion change was examined according to the following method.
Before (0 hour) and 0.5, 2, 4, and 6 hours after the instillation, the whole tear secretion was determined.
Under no anesthetization, one edge of the Schirmer's test strip (Showa Yakuhin Kako Co., Ltd., Lot No. 70080) was inserted into the conjunctival sac of the each test animal. One minute after, the strip was removed and the length of the moisted part was read from the scale provided on the strip to determine the amount of whole tear secretion.

[2] = system: rats (Crj:CD strain); assay: Exaltation of salivation, saliva evaluated visually (Test Example 3); type: in vivo, Male and female rats (Crj:CD strain); settings: 1 mg/kg orally once a day, 16 animals per group
Method: The effect of the composition of the present invention on salivary secretion was determined. (1) Test Animals Male and female rats (Crj:CD strain) were used. Each of the test and control groups contains 16 animals. (2) Method of Administration 13,14-dihydro-15-keto-16,16-difuloro-PGE1 was used as an active ingredient of the present invention to prepare test solution containing 0.2 mg/ml of the compound. 5 ml/kg of the solution (1 mg/kg of the compound) was forcedly administrated orally once a day. For the animals of control group, 5 ml/kg of the vehicle without the active ingredient was administrated once a day. The administration was continued for four weeks. (3) Examination The amount of the saliva of the test group and control group was evaluated visually everyday.

For `CCCCC(F)(F)C(=O)CCC1C(O)CC(=O)C1CCCCCCC(=O)O` (stereo not drawn) [13,14-dihydro-15-keto-16,16-difluoro-PGE1], the whole tear secretion ([1]; 0.001% ophthalmic solution, 0.5 hr after) was 17.0 ± 0.5 mm/min, the whole tear secretion ([1]; 0.001% ophthalmic solution, 2 hr after) was 14.1 ± 0.5 mm/min and the whole tear secretion ([1]; 0.001% ophthalmic solution, 4 hr after) was 11.7 ± 0.6 mm/min. The whole tear secretion ([1]; 0.001% ophthalmic solution, 6 hr after) was 10.5 ± 1.0 mm/min, the “amount of whole tear secretion (result in words)” value ([1]; 0.001% ophthalmic solution, versus control group) was “significant increase” and the “stimulating response, such as rubor in the front of the eye” value ([1]; after instillation of 0.001% ophthalmic solution, 30 μl/eye) was “No stimulating response”. For the same molecule, the whole tear secretion ([1]; test group 0.001% ophthalmic solution, before the administration (baseline)) was 5.3 ± 0.2 mm/min, the “rats in which exaltation of saliva was observed” value ([2]; 10th day after the start of the administration) was 8 of 16 and the “rats showing salivary exaltation” value ([2]; subsequent to the 22nd day after the start) was 16 rats.
